System: respiration in yeast (S288c and Hybrid A)
Assay: Acetate ester production in mini-scale yeast fermentation with or without Antimycin A
Format: cell-based, Saccharomyces cerevisiae
Settings: 3 mg/L Antimycin A in medium; genetic backgrounds S288c and Hybrid A; FIG. 7B
Description: One of the main functions of the IMP complex is processing of subunits of the respiration chain. Given the surprising finding that genetic inference with the IMP complex reduces the production of acetate esters (see Example 5 and 8), we wondered whether respiration in general modulates acetate ester production. First, yeasts strains were developed in which five genes known to be crucial for respiration (i.e. CBS1, COR1, COX9, QCR9 and COX12) were separately deleted and subsequently were used in a fermentation experiment to determine aroma production. All selected genes function independently from the IMP complex. […] More precisely, an experiment was performed in which acetate ester production of a yeast strain was measured in medium with or without supplementation of 3 mg/L Antimycin A, a chemical compound blocking the respiratory pathway (Kim et al 1999 J Am Chem Soc 121:4902). […]
Phenotyping of the individual segregants for IA production was performed using an in situ approach, and was conducted as follows: the segregants were streaked from the −80° C. stock on YPGlu 2% agar plates for 48 h at 30° C. […] After 96 h, the fermentation was ended, excess CO2 was once again released by brief opening of the vials, and the vials were measured using gas chromatography (see further). […]

In the case of Antimycin A, the “drop of isoamyl acetate production” value is reported as “about 50%”.
